Data taken from patent US9611246B2, “Compositions, apparatus, systems, and methods for resolving electronic excited states” (HALLSTAR INNOVATIONS CORP., priority 2012, dated 2017).

Assays:
Format in all cases: physicochemical
[1] = Luminescence experiments in ethanol (room temperature and 77 K matrix)
Method: Because Formula II(a)(1) contains a ketone functionality, intersystem crossing into the triplet state could be promoted after photoexcitation due to spin-orbit coupling. Stabilizer triplet states could generate singlet oxygen. Low-temperature luminescence experiments in a ethanol matrix at 77 K were performed in search for phosphorescence of potential triplet states.
The quenching mechanism of protoporphyrin IX singlet excited states and triplet states by the compound of Formulas I, II, and III may be further clarified. A simple energy transfer mechanism would depend on the singlet and triplet energies of compounds of Formula I and protoporphyrin IX. To get information on excited state energies of the stabilizer, luminescence experiments were performed. […] However, weak luminescence was observed of the compound of Formula I(a)(1) in a frozen ethanol matrix at 77 K. The luminescence with maximum at 575 nm (FIG. 7c) originates from the compound of Formula I(a)(1), because the luminescence excitation spectrum (FIG. 7b) matches well the absorption spectrum of the compound of Formula I(a)(1) (FIG. 5a). The luminescence lifetime could not be determined, because of the weak signal intensity. […] If the luminescence at 575 nm is the fluorescence, then the Stoke's shift is unusually large. Independent of the assignment of the luminescence to the fluorescence or phosphorescence, this excited state energy is higher than singlet and triplet energies of protoporphyrin IX and rules out a simple energy transfer quenching mechanism. Another possible quenching mechanism is electron transfer quenching which would depend on the redox potentials of the protoporphyrin and the two quencher compounds.

[2] = Voltammetry, redox potential with respect to Ag/AgCl reference electrode; conditions: vs Ag/AgCl; for second redox couple, oxidation peak: the small peak where two are given
Source text: For these experiments, dimethylsulfoxide (DMSO) and tetrabutylammonium perchlorate (TBAP) were obtained from Sigma Aldrich and used as received. […] Platinum wires (BASi MW-1032) of diameter 0.5 mm were employed for both the working electrode (WE) and counter electrode (CE). A dry-solvent tolerant Ag/AgCl reference electrode (RE) was obtained from eDAQ (Model ET072). The WE and CE were cleaned prior to each by first rinsing in acetone, then DI, followed by soaking in ˜50% aqueous H2SO4 for 10-20 minutes and then a final DI rinse. The RE electrode was cleaned prior to each use by an acetone rinse followed by DI rinse. Each sample solution was prepared in a fresh glass vial which had been rinsed with DI then acetone and allowed to dry Immediately after preparing each solution, it was purged with pure N2 gas for 15-20 minutes with the electrodes in place. Voltammetry data was collected shortly afterwards with an EG&G PAR 263 A Potentiostant/Galvanostat operated using a Labview-based control program. Scans were performed at various potential ranges between +2.0V and −2.0V (vs Ag/AgCl); all scan rates were constant at 200 mV/s.

[3] = Protoporphyrin IX fluorescence lifetime quenching (singlet excited state); conditions: for bimolecular quenching rate constant for singlet excited state quenching (in words) / Singlet Quenching Rate Constant: PPIX; for Singlet Quenching Rate Constant: acetonitrile solutions at room temperature
Method: Fluorescence lifetime measurements are a convenient way to measure singlet state quenching by stabilizers. Protoporphyrin IX decay traces were recorded in the absence and presence of compound I(a)(1) and alkoxy […] (FIG. 3). […] The collected data shown in FIG. 3 were used to determine the bimolecular quenching rate constant for singlet excited state quenching by the compounds. The quenching rate constant may be directly extracted from the slope of the plot of the inverse fluorescence lifetime vs. the concentration of the two compounds (FIG. 4). […] The biomolecular quenching rate constants for singlet excited state (kq^S) and triplet excited state (kq^T) quenching of PPIX by stabilizers in acetonitrile solutions at room temperature is shown in Table 4, as well and the Stern-Volmer rate constants.

[4] = Protoporphyrin IX triplet state quenching by laser flash photolysis; conditions: for Triplet Quenching Rate Constant: PPIX, acetonitrile solutions at room temperature
Method: To investigate if triplet states of protoporphyrin IX are quenched by the two compounds, laser flash photolysis experiments were performed. In these experiments, a deoxygenated acetonitrile solution of protoporphyrin IX is excited with short laser pulses from a Nd-YAG laser (355 nm, 5 ns pulse width). Difference absorption kinetic traces were recorded at different observation wavelengths (300 to 800 nm) and from these a transient absorption spectrum was constructed (FIG. 5A). […] In addition, two bands are observed at 320 and 440 nm, which are assigned to the triplet-triplet absorption of protoporphyrin IX. […] Triplet absorption kinetics at 440 nm may be utilized to obtain triplet quenching rate constants by the stabilizers. Triplet decay traces at 440 nm were recorded in the presence of different amounts of the alkoxy […], Formulas […])(1), and the mixture of II(b)(1) and II(c)(1). The decay traces were fitted to a first-order kinetics. The plot of these pseudo-first-order rate constants (inverse decay lifetime) vs. the concentration of the two compounds gives directly the bimolecular triplet quenching rate constant from the slope (FIG. 6). The biomolecular quenching rate constants for singlet excited state (kq^S) and triplet excited state (kq^T) quenching of PPIX by stabilizers in acetonitrile solutions at room temperature is shown in Table 4, as well and the Stern-Volmer rate constants.

[5] = Stern-Volmer analysis of singlet oxygen suppression
Source text: The singlet oxygen phosphorescence intensity in the absence of the compound of Formulas I(a)(1), II(a)(1), II(d)(1), II(e)(1), or a mixture of II(b)(1) and II(c)(1) (I0) divided by the singlet oxygen phosphorescence intensity in the presence of compounds of Formula I/II(I) was plotted against the Formula I/II concentration (FIG. 16). From the slope of these plots (Stern-Volmer constant) and the lifetime of the quenched excited state, the bimolecular quenching constant can be extracted. If the excited state, which is quenched by the compound of Formula I(a)(1) (which causes a reduction in singlet oxygen production) is the singlet excited state of protoporphyrin IX then, using the previously measured fluorescence lifetime in acetonitrile (if =12.7 ns) a quenching rate constant of 2.4×10^9 M^−1 s^−1 is estimated. […] The rate constant derived from singlet oxygen phosphorescence quenching (FIG. 16) is only half of the more directly derived rate constant from fluorescence quenching, which could be caused by the difference in solvents or by some contribution of protoporphyrin triplet quenching by the compound of Formula I(a)(1). […] This rate constant is 5 times higher than the directly measured rate constant by laser flash photolysis (6.1×10^6 M^−1 s^−1). […] It must be noted that protoporphyrin IX triplet lifetime of ˜1 μs in air saturated DMSO was only estimated based on the directly measured triplet lifetime in air saturated acetonitrile and considering the different oxygen concentration in DMSO compared to acetonitrile. If necessary, the protoporphyrin IX triplet lifetime in air saturated DMSO can easily be measured by laser flash photolysis. The complex reaction mechanism is summarized in Scheme 1 (FIG. 17).
The biomolecular quenching rate constants for singlet excited state (kq^S) and triplet excited state (kq^T) quenching of PPIX by stabilizers in acetonitrile solutions at room temperature is shown in Table 4, as well and the Stern-Volmer rate constants.
Stern-Volmer constants are in direct correlation with the singlet oxygen suppression efficiency. Table 4 (above) summarizes the Stern-Volmer constants and PPIX singlet and triplet state quenching rate constants. Three different ranges of Stern-Volmer constants were observed. […] For compounds I(a)(1), II(d)(1), and the mixture of II(b)(1) and II(c)(1), Stern-Volmer constants of about 30 M^−1 were observed. For these three stabilizers, high PPIX singlet quenching rate constants (about 5×10^9 M^−1 s^−1) but low triplet quenching rate constants (<10^9 M^−1 s^−1) were observed. Here, the singlet oxygen suppression is probably dominated by PPIX singlet excited state quenching by these stabilizers. […] Because of the very high PPIX triplet quenching rate constant by compound II(a)(1) (3.2×10^9 M^−1 s^−1), the singlet oxygen suppression is probably dominated by triplet quenching. […] These kinetic parameters may include the MePPIX triplet and singlet lifetimes in air saturated and oxygen free CDCl3 and the bimolecular quenching constant by oxygen.

[6] = 0.01 M in 0.1 M TBAP in DMSO, 200 mV/s

Row | Structure (SMILES) | luminescence maximum ([1]; ethanol matrix at 77 K) [nm] | fluorescence at room temperature ([1]; ethanol solution) | first (or only) redox couple, oxidation peak [2, 6] [mV] | first (or only) redox couple, reduction peak [2, 6] [mV] | second redox couple, reduction peak [2, 6] [mV] | first (or only) redox couple, redox potential ([2]; estimated from the peaks) [mV] | second redox couple, redox potential ([2]; estimated from the peaks) | second redox couple, oxidation peak [2] [mV] | bimolecular quenching rate constant for singlet excited state quenching (in words) ([3]; acetonitrile) | Singlet Quenching Rate Constant [3] | rate constant of PPIX singlet quenching using fluorescence quenching ([3]; acetonitrile) [M⁻¹ s⁻¹] | quenching of protoporphyrin IX fluorescence (fluorescence lifetime) ([3]; acetonitrile, alkoxy crylene even at 0.1 M) | PPIX triplet quenching rate constant by laser flash photolysis [4] [M⁻¹ s⁻¹] | Triplet Quenching Rate Constant [4] | rate constant from Stern-Volmer plot, if suppression entirely caused by triplet quenching ([5]; considering triplet lifetime ~1 μs in air saturated DMSO) [M⁻¹ s⁻¹] | quenching rate constant from Stern-Volmer constant, if singlet excited state is quenched ([5]; using fluorescence lifetime 12.7 ns) [M⁻¹ s⁻¹] | luminescence quantum yield ([1]; ethanol matrix at 77 K) | second redox couple, oxidation peak (large) [2] | PPIX triplet quenching (in words) ([4]; triplet decay at 440 nm) | Stern-Volmer Constant of ^1O2 Suppression [5] [M⁻¹]
1 | COC(=O)C(C#N)=C1c2ccccc2-c2ccccc21 [Formula I(a)(1)] | 575 | did not give detectable fluorescence | −560 | −757 | −1297 | −658 | approximately −1199 mV | −1102 | high quenching rate constant | 5.3 10^9 M^−1s^−1 | 5.3e+09 | significantly quenches | 6.1e+06 | 0.0061 10^9 M^−1s^−1 | ~3e+07 | 2.4e+09 |  |  |  | 
2 | COC(=O)C(C#N)=C1c2ccccc2C(=O)c2ccccc21 [Formula II(a)(1)] | 492 |  |  |  | −1537 |  | −1501 mV | −1466 | high quenching rate constant | 5.2 10^9 M^−1s^−1 |  |  | 3.2e+09 | 3.2 10^9 M^−1s^−1 |  |  | less than 1% | +430 mV | most efficient quencher | 240
